{
  "source": "patent US20030118985A1",
  "about": "“Mouse monoclonal antibody (5-21-3) to human immunodeficiency virus gp41 protein” (priority 1997, published 2003)",
  "key": {"[1]": {"system": "monoclonal antibody 10-15-63", "assay": "Immuno-dot blot of synthetic peptides with 10-15-63", "assay_type": "binding, mouse", "settings": "25 ug/ml 10-15-63", "from_the_text": "(§1) The western Blot procedure described in Example 1 was employed for development of immuno-dot blots using synthetic peptides, except that synthetic peptides were fixed to nitrocellulose by direct application using Drummond lambda pipettes, and air dried prior to blocking with 20% fetal calf serum in PBS (pH 7.4)."}, "[2]": {"system": "Rabbit (R) anti-P58-130 serum", "assay": "Immunoprecipitation of [125I] synthetic peptides by rabbit anti-P58-130 serum", "assay_type": "binding", "settings": "for SPECIFIC PRECIPITATION (CPM) by RαP58-130 / x-fold increase of specific over non-specific precipitation, RαP58-130: rabbit anti-P58-130 serum 20 ul/0.2 ml", "description": "(§2) Synthetic peptides were radiolabeled with ^125I (Amersham) by the chloramine T method (N. M. Hunter, “Radioimmunoassay” in D. M. Weir, Ed., Handbook of Experimental Immunology, [Blackwell Scientific Publications, 1973]). Generally, 2-6 ul of 100 mCi/ml ^125I were added to 10-50 ug of peptide in PBS, pH 7.4. Approximately 10 ug of freshly prepared (1 mg/ml in PBS) chloramine T were added to the mixture maintained at 4° C. After 5 min., [^125I]peptide was separated from free ^125I by passage of the reaction mixture through a 3 ml (bed volume) column of Biogel P-6 or P-2, as required. Fractions (200 ul each) containing [^125I]peptide were pooled and diluted into PBS containing 20% fetal calf serum. Rough estimations of ^125I cpm bound to peptide were made by acid precipitation. An aliquot of labeled peptide was diluted into 1 ml of ice cold 50% trichloroacetic acid (TCA) overlaying a 0.45 um filter (made of mixed cellulose esters) set on a scintered glass filter connected to a vacuum apparatus. Precipitated protein was fixed onto the filter by application of vacuum, and filters were washed with ice-cold 50% TCA. Background cpm adhering non-specifically to the filter were estimated by repeating the procedure using a non-precipitating buffer. Amounts of peptide, ^125I, chloramine T, and composition of column eluting buffer were subject to change depending on conditions required to maintain solubility of each peptide.\n(§3) Synthetic peptides radiolabeled with ^125I were diluted into PBS (pH 7.4) containing 0.1% Triton X-100 (or other detergents where indicated) and 1.0% BSA, to yield approximately 2.5-5×10^5 acid-precipitable cpm per 0.1 ml. Purified monoclonal IgG 5-21-3 and 10-15-63 were employed in the assay. Monoclonal antibodies were diluted into PBS containing 0.1% Triton X-100 (or other detergents where indicated), 1.0% BSA, and 2% normal mouse serum as a carrier immunoglobulin. Immune rabbit serum (anti-P58-130) was diluted appropriately into the same buffer except that normal rabbit serum (2%) was substituted for normal mouse serum as the carrier immunoglobulin. A reaction mixture comprising 0.1 ml [^125I] peptide (5×10^5 cpm/0.1 ml) and 0.1 ml diluted antibody was incubated 1 hr at 40° C., followed by addition of 0.1 ml of a precipitating antibody, either goat anti-mouse IgG, or goat anti-rabbit IgG, corresponding to the primary antibody. The reaction mixture was incubated 1 hr at 40° C. and then overnight at 4° C. […] Precipitation assays employing Protein A-Sepharose as the precipitating reagent were performed in a similar manner, except that normal sera were omitted from the reaction mixtures."}, "[3]": {"system": "binding of antibody 5-21-3 to rp41", "assay": "Binding inhibition assay: peptides inhibit binding of 5-21-3 to rp41", "design": "species or system HIV I", "description": "Additional evidence for the conformationl nature of the 5-21-3 epitope was obtained using binding inhibition studies, in which synthetic peptides were ranked for their ability to inhibit binding of 5-21-3 to rp41. First, the Fab dimer of an anti-gp41 monoclonal antibody was prepared by conventional methods (Goding et al., supra). Then 100 ul of a 1 mg/ml solution of the Fab dimer in bicarbonate buffer (pH 9.6) was coated onto Immulon II microtiter plates for 1 hr at 37° C. After washing with PBS containing 0.05% Tween 20, the plates were overcoated with 200 ul of 1.0% ovalbumin in bicarbonate buffer (pH 9.6) for 1 hr at 30° C. After washing, 100 ul of rp41 enriched E. coli lysate (as described in Example 3), diluted appropriately in PBS containing 0.05% Tween 20, were allowed to bind to the Fab dimer for 2 hr at 30° C. The plates were washed and stored at 4° C.\nIntact monoclonal antibody 5-21-3 IgG (purified from tissue culture fluid supporting growth of the cloned cell line 5-21-3) was titrated against the bound rp41 on the plate, and an antibody concentration was selected which yielded an A492 value of 2.0-3.0. Usually, 0.4 pmol (0.06 ug) of 5-21-3 IgG per microtiter well was employed in these assays. Stock solutions of 5-21-3 IgG were prepared in PBS containing 0.1% Triton X-100 and 0.1% SDS. Dilutions of synthetic peptides were made in the same buffer (SDS was included in these experiments to keep peptides soluble at high concentrations).\nThe binding inhibition assay was performed by combining 0.15 ml of 1.2 ug/ml 5-21-3 antibody stock solution with 0.15 ml of peptide at a selected peptide concentration, and incubating the reaction mixture 1 hr at room temp. Then 0.1 ml aliquots of each reaction mixture were added to each of two wells in the microtiter tray. After a 1 hr incubation at room temp., the plates were washed, and HRPO conjugated Goat anti-mouse IgG Fc was added for 1 hr at room temp. The plates were washed, and addition of OPD for color development identified the relative amounts of 5-21-3 bound to rp41 in the microtiter wells. The reaction was stopped by addition of 100 ul of 1N H2SO4, and the plates were read on a Dynatech II microtiter plate reader."}, "[4]": {"system": "Rabbit (R) anti-P58-130 serum", "assay": "Immuno-dot blot of synthetic peptides with rabbit anti-P58-130 serum", "assay_type": "binding", "settings": "2% serum", "from_the_text": "as §1"}, "[5]": {"system": "monoclonal antibody 10-15-63", "assay": "Immunoprecipitation of [125I] synthetic peptides by 10-15-63", "assay_type": "binding, mouse", "settings": "for SPECIFIC PRECIPITATION (CPM) by 10-15-63 / x-fold increase of specific over non-specific precipitation, 10-15-63: 10-15-63 10 μg/0.2 ml", "description": "as §2, §3"}, "[6]": {"system": "monoclonal antibody 5-21-3", "assay": "Immuno-dot blot of synthetic peptides with 5-21-3", "assay_type": "binding, mouse", "settings": "25 ug/ml 5-21-3; peptide spotted on nitrocellulose", "from_the_text": "as §1"}, "[7]": {"system": "mouse (M) anti-rp41 serum", "assay": "Immuno-dot blot of synthetic peptides with mouse anti-rp41 serum", "assay_type": "binding", "settings": "2% serum", "from_the_text": "as §1"}, "[8]": {"system": "monoclonal antibody 5-21-3", "assay": "Immunoprecipitation of [125I] synthetic peptides by 5-21-3", "assay_type": "binding, mouse", "settings": "for SPECIFIC PRECIPITATION (CPM) by 5-21-3 / x-fold increase of specific over non-specific precipitation, 5-21-3: 5-21-3 10 μg/0.2 ml", "description": "as §2, §3"}, "[9]": {"settings": "PBS, 0.1% Triton X-100, 1.0% BSA, carrier serum, second antibody precipitation"}, "[10]": {"settings": "second antibody precipitation, vs normal mouse IgG"}, "[11]": {"settings": "detergent-rich buffer, Protein A-Sepharose"}},
  "note": "Entries after “also recorded” stand apart in the source; their conditions may differ.",
  "data": [
    {"substance": "ARILAVERYLKDQQLLGIWGCSGKLICTTAVPWNASWSNKSLEQIWNNMTWMEWDREINNYSLIHSLIEESQNQQEKNELLELNK [P67-154]", "values": [
      {"measurement": "immuno-dot blot reactivity with 10-15-63", "setting": "[1]", "result": "Little or no reactivity"},
      {"measurement": "precipitation of [125I]peptide by rabbit anti-P58-130, in words", "setting": "[2]", "result": "strong precipitator"},
      {"measurement": "SPECIFIC PRECIPITATION (CPM) by RαP58-130", "setting": "[2]; second antibody precipitation", "result": "479,343 CPM"},
      {"measurement": "x-fold increase of specific over non-specific precipitation, RαP58-130", "setting": "[2]; second antibody precipitation, vs normal rabbit serum", "result": "(4.4) x-fold"},
      {"measurement": "inhibition of 5-21-3 binding to rp41, in words", "setting": "[3]", "result": "potent inhibitor; also recorded: most potent inhibitor"},
      {"measurement": "Molar Ratio at 50% inhibition of 5-21-3 binding", "setting": "[3]; mean of two experiments, 0.4 pmol 5-21-3 IgG per well", "result": "72.7 pmoles peptide/pmoles 5-21-3"},
      {"measurement": "immuno-dot blot reactivity with rabbit anti-P58-130 serum", "setting": "[4]", "result": "Strong reactivities"},
      {"measurement": "SPECIFIC PRECIPITATION (CPM)", "setting": "[5]; 10-15-63 1.0 μg/ml final", "result": 0, "unit": "CPM"},
      {"measurement": "x-fold increase of specific over non-specific precipitation", "setting": "[5]; 10-15-63 1.0 μg/ml final", "result": "(0) x-fold"},
      {"measurement": "SPECIFIC PRECIPITATION (CPM) by 10-15-63", "setting": "[5]; [9]", "result": 9713, "unit": "CPM"},
      {"measurement": "x-fold increase of specific over non-specific precipitation, 10-15-63", "setting": "[5]; [10]", "result": "(1.3) x-fold"},
      {"measurement": "SPECIFIC PRECIPITATION (CPM)", "setting": "[5]; 10-15-63 10.0 μg/ml final", "result": 0, "unit": "CPM"},
      {"measurement": "x-fold increase of specific over non-specific precipitation", "setting": "[5]; 10-15-63 10.0 μg/ml final", "result": "(0) x-fold"},
      {"measurement": "SPECIFIC PRECIPITATION (CPM)", "setting": "[5]; 10-15-63 100.0 μg/ml final", "result": 0, "unit": "CPM"},
      {"measurement": "x-fold increase of specific over non-specific precipitation", "setting": "[5]; 10-15-63 100.0 μg/ml final", "result": "(0) x-fold"},
      {"measurement": "immuno-dot blot reactivity with 5-21-3", "setting": "[6]", "result": "very strong reaction"},
      {"measurement": "immuno-dot blot reactivity with mouse anti-rp41 serum", "setting": "[7]", "result": "Strong reactivities"},
      {"measurement": "binding of [125I]peptide by 5-21-3 (immunoprecipitation), in words", "setting": "[8]", "result": "readily bound"},
      {"measurement": "SPECIFIC PRECIPITATION (CPM)", "setting": "[8]; 5-21-3 1.0 μg/ml final", "result": "165,781 CPM"},
      {"measurement": "x-fold increase of specific over non-specific precipitation", "setting": "[8]; 5-21-3 1.0 μg/ml final", "result": "(3.6) x-fold"},
      {"measurement": "SPECIFIC PRECIPITATION (CPM) by 5-21-3", "setting": "[8]; [9]", "result": "479,207 CPM"},
      {"measurement": "x-fold increase of specific over non-specific precipitation, 5-21-3", "setting": "[8]; [10]", "result": "(16) x-fold"},
      {"measurement": "SPECIFIC PRECIPITATION (CPM)", "setting": "[8]; 5-21-3 10.0 μg/ml final", "result": "441,887 CPM"},
      {"measurement": "x-fold increase of specific over non-specific precipitation", "setting": "[8]; 5-21-3 10.0 μg/ml final", "result": "(8.5 x-fold"},
      {"measurement": "SPECIFIC PRECIPITATION (CPM)", "setting": "[8]; 5-21-3 100.0 μg/ml final", "result": "659,045 CPM"},
      {"measurement": "x-fold increase of specific over non-specific precipitation", "setting": "[8]; 5-21-3 100.0 μg/ml final", "result": "(8.0) x-fold"},
      {"measurement": "5-21-3 concentration required to demonstrate binding of the peptide", "setting": "[8]; immunoprecipitation, Table 5", "result": "≤ 1", "unit": "µg/mL"}
    ]},
    {"substance": "H-TVWGIKELQARILAVERYLKDQQLLGIWGCSGKLICTTAVPWNASWSNKSLEQIWNNMTWMEWDREINNYTSL-OH [P58-130]", "values": [
      {"measurement": "immuno-dot blot reactivity with 10-15-63", "setting": "[1]", "result": "Little or no reactivity"},
      {"measurement": "precipitation of [125I]peptide by rabbit anti-P58-130, in words", "setting": "[2]", "result": "strong precipitator"},
      {"measurement": "SPECIFIC PRECIPITATION (CPM) by RαP58-130", "setting": "[2]; [11]", "result": "286,722 CPM"},
      {"measurement": "x-fold increase of specific over non-specific precipitation, RαP58-130", "setting": "[2]; [11]", "result": "(32) x-fold"},
      {"measurement": "inhibition of 5-21-3 binding to rp41, in words", "setting": "[3]", "result": "no detectable inhibition"},
      {"measurement": "immuno-dot blot reactivity with rabbit anti-P58-130 serum", "setting": "[4]", "result": "Strong reactivities"},
      {"measurement": "SPECIFIC PRECIPITATION (CPM) by 10-15-63", "setting": "[5]; [11]", "result": 0, "unit": "CPM"},
      {"measurement": "x-fold increase of specific over non-specific precipitation, 10-15-63", "setting": "[5]; [11]", "result": "(<1) x-fold"},
      {"measurement": "immuno-dot blot reactivity with 5-21-3", "setting": "[6]", "result": "did not react"},
      {"measurement": "immuno-dot blot reactivity with mouse anti-rp41 serum", "setting": "[7]", "result": "Strong reactivities"},
      {"measurement": "binding of [125I]peptide by 5-21-3 (immunoprecipitation), in words", "setting": "[8]", "result": "unable to bind"},
      {"measurement": "SPECIFIC PRECIPITATION (CPM) by 5-21-3", "setting": "[8]; detergent-rich buffer (0.1% Triton X-100, 1.0% sodium deoxycholate, 0.1% SDS), Protein A-Sepharose", "result": 0, "unit": "CPM"},
      {"measurement": "x-fold increase of specific over non-specific precipitation, 5-21-3", "setting": "[8]; [11]", "result": "(<1) x-fold"}
    ]}
  ]
}
